Test results published in patent US12129246B1, “Hydroquinazoline derivatives for the treatment of a disease or disorder” (Novartis AG, priority 2023, dated 2024).
Like-named read-outs stand apart in the source and are kept apart here.

Key:
human NPR1 = biological target: T1, human NPR1 (Homo sapiens, UniProt P16066); assay: Cellular cGMP production assay, human NPR1 expressing CHO-K1 cells (CisBio HTRF); assay type: cell-based; conditions: for AC50: cGMP production, 30 min at 37° C., 12-point dose-response from 30 μM; for Human NPR1 Amax (% of ANP): maximum cGMP production as percentage of the maximum cGMP produced with ANP
T1 construct: host or cells: CHO-K1
T1 sequence (P16066 33-1061): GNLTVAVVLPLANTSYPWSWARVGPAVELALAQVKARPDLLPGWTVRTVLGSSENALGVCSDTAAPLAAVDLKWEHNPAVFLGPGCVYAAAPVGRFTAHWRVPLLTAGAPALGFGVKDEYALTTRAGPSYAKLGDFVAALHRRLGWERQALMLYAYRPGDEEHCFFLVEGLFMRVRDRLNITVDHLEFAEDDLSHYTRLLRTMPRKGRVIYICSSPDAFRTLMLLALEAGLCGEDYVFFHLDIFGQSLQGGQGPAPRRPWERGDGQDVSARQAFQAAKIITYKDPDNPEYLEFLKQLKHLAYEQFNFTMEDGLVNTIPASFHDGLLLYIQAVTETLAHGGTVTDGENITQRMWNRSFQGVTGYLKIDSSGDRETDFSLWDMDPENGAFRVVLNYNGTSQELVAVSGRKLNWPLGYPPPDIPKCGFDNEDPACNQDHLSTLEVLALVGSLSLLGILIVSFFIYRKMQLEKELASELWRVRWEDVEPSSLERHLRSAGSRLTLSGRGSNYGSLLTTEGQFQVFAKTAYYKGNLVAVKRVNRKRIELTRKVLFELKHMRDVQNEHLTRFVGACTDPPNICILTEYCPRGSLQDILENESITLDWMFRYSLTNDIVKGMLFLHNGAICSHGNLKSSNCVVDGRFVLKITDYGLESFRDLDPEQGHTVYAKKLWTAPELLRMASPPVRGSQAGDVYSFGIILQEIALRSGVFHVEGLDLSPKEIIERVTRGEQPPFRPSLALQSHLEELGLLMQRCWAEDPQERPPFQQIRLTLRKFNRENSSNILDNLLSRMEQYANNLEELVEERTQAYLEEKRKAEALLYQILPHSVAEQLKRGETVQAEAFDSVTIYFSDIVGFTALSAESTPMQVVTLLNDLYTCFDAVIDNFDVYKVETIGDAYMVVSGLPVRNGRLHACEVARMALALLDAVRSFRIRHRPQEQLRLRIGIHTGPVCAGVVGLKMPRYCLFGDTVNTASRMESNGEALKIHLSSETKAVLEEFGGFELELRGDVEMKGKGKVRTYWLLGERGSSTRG
Summary of the method: (§1)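 12-pt 3-fold dose-response, top 30 μM; buffer PBS + 0.1% BSA + 1 mM IBMX (PDE inhibitor); 30 min, 37 °C. Lyse, add cGMP-d2 + anti-cGMP-cryptate, 1 h RT. Ex 317 / em 665 nm; Delta F converted to cGMP via calibrator standard curve.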

monkey NPR1 = monkey NPR1 (Macaca fascicularis, UniProt A0A7N9DBT9); assay: Cellular cGMP production assay, monkey NPR1 expressing CHO-K1 cells (CisBio HTRF); assay type: cell-based; conditions: for Monkey NPR1 Amax (% of ANP): maximum cGMP production as percentage of the maximum cGMP produced with ANP
Summary of the method: as §1

[1] = cGMP production, monkey NPR1 CHO-K1 cells, 30 min at 37° C., 12-point dose-response from 30 μM, read-out: Monkey NPR1 AC50

Chain of monkey NPR1 (A0A7N9DBT9 entry or part of it): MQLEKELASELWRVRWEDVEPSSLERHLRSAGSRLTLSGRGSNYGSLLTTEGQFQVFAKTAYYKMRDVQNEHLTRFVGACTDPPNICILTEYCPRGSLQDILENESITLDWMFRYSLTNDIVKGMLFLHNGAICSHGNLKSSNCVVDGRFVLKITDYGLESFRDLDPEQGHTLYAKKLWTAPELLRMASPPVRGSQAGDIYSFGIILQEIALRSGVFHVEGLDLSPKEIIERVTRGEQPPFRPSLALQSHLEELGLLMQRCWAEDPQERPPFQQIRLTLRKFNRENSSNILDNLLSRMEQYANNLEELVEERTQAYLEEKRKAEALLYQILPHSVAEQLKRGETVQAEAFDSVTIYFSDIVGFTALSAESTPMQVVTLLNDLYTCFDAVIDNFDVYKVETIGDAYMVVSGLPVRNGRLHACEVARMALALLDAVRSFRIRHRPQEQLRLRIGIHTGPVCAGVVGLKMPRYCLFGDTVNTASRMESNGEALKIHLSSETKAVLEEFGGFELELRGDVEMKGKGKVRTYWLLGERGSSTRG

Row | Compound | AC50 (human NPR1) | Human NPR1 Amax (% of ANP) (human NPR1) | AC50 (monkey NPR1) | Monkey NPR1 Amax (% of ANP) (monkey NPR1; monkey NPR1 CHO-K1 cells) | AC50 (monkey NPR1; [1])
1 | CC[C@H]([C@H]1CC[C@H](C(=O)O)CC1)N(C)c1nc2c(c(N[C@@H](CN3C4CCC3CC4)c3cnn(C)c3)n1)C[C@H](c1ccc(F)cc1)CC2 [Compound 63, (1R,4r)-4-((R)-1-(((R)-4-(((R)-2-(7-azabicyclo[2.2.1]heptan-7-yl)-1-(1-methyl-1H-pyrazol-4-yl)ethyl)amino)-6-(4-fluorophenyl)-5,6,7,8-tetrahydroquinazolin-2-yl)(methyl)amino)propyl)cyclohexane-1-carboxylic acid] | 210 nM | 100.629 % of ANP | 196 nM | 99.684 % of ANP | 
2 | CC[C@H]([C@H]1CC[C@H](C(=O)O)CC1)N(C)c1nc2c(c(N[C@@H](CN3C4CCCC3CCC4)c3cnn(C)c3)n1)C[C@H](c1ccccc1)CC2 [Compound 143, (1R,4r)-4-((R)-1-(((R)-4-(((R)-2-((1S,5S)-9-azabicyclo[3.3.1]nonan-9-yl)-1-(1-methyl-1H-pyrazol-4-yl)ethyl)amino)-6-phenyl-5,6,7,8-tetrahydroquinazolin-2-yl)(methyl)amino)propyl)cyclohexane-1-carboxylic acid] | 920 nM | 104.085 % of ANP | 694 nM | 100.784 % of ANP | 
3 | CC[C@H]([C@H]1CC[C@H](C(=O)O)CC1)N(C)c1nc2c(c(N[C@@H](CN3C4CCCC3COC4)c3cnn(C)c3)n1)C[C@H](c1ccccc1)CC2 [Compound 169, (1R,4r)-4-((R)-1-(((R)-4-(((R)-2-((1R,5S)-3-oxa-9-azabicyclo[3.3.1]nonan-9-yl)-1-(1-methyl-1H-pyrazol-4-yl)ethyl)amino)-6-phenyl-5,6,7,8-tetrahydroquinazolin-2-yl)(methyl)amino)propyl)cyclohexane-1-carboxylic acid] | 2670 nM | 67.375 % of ANP | 1920 nM | 96.574 % of ANP | 
4 | C[C@H]1CCCN(C[C@H](Nc2nc(N(C)[C@H](C3CC3)[C@H]3CC[C@H](C(=O)O)CC3)nc3c2C[C@H](c2cccc(F)c2)CC3)c2cnn(C)c2)C1 [Compound 47, (1R,4r)-4-((R)-cyclopropyl(((R)-6-(3-fluorophenyl)-4-(((R)-1-(1-methyl-1H-pyrazol-4-yl)-2-((S)-3-methylpiperidin-1-yl)ethyl)amino)-5,6,7,8-tetrahydroquinazolin-2-yl)(methyl)amino)methyl)cyclohexane-1-carboxylic acid] | 180 nM | 101.280 % of ANP |  | 96.550 % of ANP | 97 nM
5 | CC[C@@H](Nc1nc2c(c(N[C@@H](CN3C4CCCC3CCC4)c3cnn(CC)c3)n1)C[C@@H](c1cccc(F)c1)CC2)[C@H]1CC[C@H](C(=O)O)CC1 [Compound 10, (1R,4r)-4-((R)-1-(((S)-4-(((R)-2-((1S,5S)-9-azabicyclo[3.3.1]nonan-9-yl)-1-(1-ethyl-1H-pyrazol-4-yl)ethyl)amino)-6-(3-fluorophenyl)-5,6,7,8-tetrahydroquinazolin-2-yl)amino)propyl)cyclohexane-1-carboxylic acid] | 91 nM | 96.065 % of ANP | 73 nM | 97.058 % of ANP | 
6 | CC[C@@H](Nc1nc2c(c(N[C@@H](CN3CCC(F)CC3)c3cnn(C)c3)n1)C[C@H](c1ccccc1)CC2)[C@H]1CC[C@H](C(=O)O)CC1 [Compound 142, (1R,4r)-4-((R)-1-(((R)-4-(((R)-2-(4-fluoropiperidin-1-yl)-1-(1-methyl-1H-pyrazol-4-yl)ethyl)amino)-6-phenyl-5,6,7,8-tetrahydroquinazolin-2-yl)amino)propyl)cyclohexane-1-carboxylic acid] | 901 nM | 107.815 % of ANP |  | 95.614 % of ANP | 313 nM
7 | CC(Nc1nc2c(c(N[C@@H](CN3CCCC3)c3ccccc3)n1)CC(c1ccccc1)CC2)[C@H]1CC[C@H](C(=O)O)CC1 (stereo partly drawn) [Compound 158, (1S,4r)-4-((1S)-1-((6-phenyl-4-(((R)-1-phenyl-2-(pyrrolidin-1-yl)ethyl)amino)-5,6,7,8-tetrahydroquinazolin-2-yl)amino)ethyl)cyclohexane-1-carboxylic acid] | 1430 nM | 109.837 % of ANP |  | 165.777 % of ANP | 1270 nM
8 | CC[C@@H](Nc1nc2c(c(N[C@@H](CN3CC4CCC3C4)c3ccc(F)cc3)n1)C[C@H](c1ccccc1)CC2)[C@H]1CC[C@H](C(=O)O)CC1 (stereo partly drawn) [Compound 86, (1R,4r)-4-((1R)-1-(((6R)-4-(((1R)-2-(2-azabicyclo[2.2.1]heptan-2-yl)-1-(4-fluorophenyl)ethyl)amino)-6-phenyl-5,6,7,8-tetrahydroquinazolin-2-yl)amino)propyl)cyclohexane-1-carboxylic acid] | 286 nM | 101.050 % of ANP |  | 92.318 % of ANP | 192 nM
9 | CC[C@@H](Nc1nc2c(c(N[C@H](CN3CCC[C@H](C)C3)c3cnn(C)c3)n1)C[C@](C)(c1cccc(F)c1)CC2)[C@H]1CC[C@H](C(=O)O)CC1 (stereo in doubt) [Compound 130, (1S,4r)-4-((S)-1-(((S)-6-(3-fluorophenyl)-6-methyl-4-(((R)-1-(1-methyl-1H-pyrazol-4-yl)-2-((R)-3-methylpiperidin-1-yl)ethyl)amino)-5,6,7,8-tetrahydroquinazolin-2-yl)amino)propyl)cyclohexane-1-carboxylic acid] | 671 nM | 88.663 % of ANP |  | 114.798 % of ANP | 205 nM
10 | CC[C@H]([C@H]1CC[C@H](C(=O)O)CC1)N(C)c1nc2c(c(N[C@@H](CN3CCC[C@H](C)C3)c3cnn(C)c3)n1)C[C@@H](c1cccc(F)c1)CC2 [Compound 75, (1R,4r)-4-((R)-1-(((S)-6-(3-fluorophenyl)-4-(((R)-1-(1-methyl-1H-pyrazol-4-yl)-2-((S)-3-methylpiperidin-1-yl)ethyl)amino)-5,6,7,8-tetrahydroquinazolin-2-yl)(methyl)amino)propyl)cyclohexane-1-carboxylic acid] | 247 nM | 93.803 % of ANP | 162 nM | 102.588 % of ANP | 
11 | CC[C@@H](N(C)c1nc2c(c(N[C@H](CN3CCCCCC3)c3cnn(C)c3)n1)C[C@H](c1cccc(F)c1)CC2)C12CC(C(=O)O)(C1)C2 [Compound 4, 3-((R)-1-(((R)-4-(((S)-2-(azepan-1-yl)-1-(1-methyl-1H-pyrazol-4-yl)ethyl)amino)-6-(3-fluorophenyl)-5,6,7,8-tetrahydroquinazolin-2-yl)(methyl)amino)propyl)bicyclo[1.1.1]pentane-1-carboxylic acid] | 72 nM | 99.041 % of ANP |  | 101.838 % of ANP | 70 nM
12 | CC[C@H]([C@H]1CC[C@H](C(=O)O)CC1)N(C)c1nc2c(c(N[C@@H](CN3CCCC(C)(F)C3)c3cnn(C)c3)n1)C[C@H](c1ccccc1)CC2 (stereo partly drawn) [Compound 144, (1R,4r)-4-((1R)-1-(((6R)-4-(((1R)-2-(3-fluoro-3-methylpiperidin-1-yl)-1-(1-methyl-1H-pyrazol-4-yl)ethyl)amino)-6-phenyl-5,6,7,8-tetrahydroquinazolin-2-yl)(methyl)amino)propyl)cyclohexane-1-carboxylic acid] | 985 nM | 114.314 % of ANP |  | 152.392 % of ANP | 873 nM
13 | CC[C@H]([C@H]1CC[C@H](C(=O)O)CC1)N(C)c1nc2c(c(N[C@@H](CN3CCCCC3)c3cnn(C4CC4)c3)n1)C[C@H](c1ccccc1)CC2 [Compound 97, (1R,4r)-4-((R)-1-(((R)-4-(((R)-1-(1-cyclopropyl-1H-pyrazol-4-yl)-2-(piperidin-1-yl)ethyl)amino)-6-phenyl-5,6,7,8-tetrahydroquinazolin-2-yl)(methyl)amino)propyl)cyclohexane-1-carboxylic acid] | 338 nM | 107.286 % of ANP |  | 96.148 % of ANP | 192 nM
